MIC and IC50 data for 24 molecules are collected here from ChEMBL document CHEMBL6153051, “Synthesis, biological evaluation and validation of IMB-881 derivatives as anti-Gram-negative bacterial agents” (Bioorg Med Chem, 2025).

Molecules are shown by their SMILES. Converted amounts (≈) assume the structure as drawn.

For one series, the system named is Escherichia coli. The series can be described thus: Antibacterial activity against Escherichia coli ATCC 25922 assessed as bacterial growth inhibition in presence of CAMHB medium by broth microdilution method. Format: functional. In general terms: Dilution methods test growth across graded concentrations, often in twofold steps.
Series [1] is described as follows: Cytotoxicity against green monkey Vero cells incubated for 48 hrs by CCK-8 assay. Format: toxicity, cell-based. As to conditions: green monkey (Chlorocebus sabaeus). (In general: Tetrazolium assays rely on reduction of a dye to a coloured formazan, in cell work by metabolically active cells.)
The next series deals with Pseudomonas aeruginosa. The series can be described thus: Antibacterial activity against Pseudomonas aeruginosa PAO1 assessed as bacterial growth inhibition in presence of CAMHB medium by broth microdilution method. Format: functional.
Series [2] in a line: Cytotoxicity against dog MDCK cells incubated for 48 hrs by CCK-8 assay. Format: toxicity, cell-based. As to conditions: dog (Canis lupus familiaris).
The subject of another series is Acinetobacter baumannii. In words: Antibacterial activity against Acinetobacter baumannii ATCC 19606 assessed as bacterial growth inhibition in presence of CAMHB medium by broth microdilution method. Format: functional.
The subject of a further series is Klebsiella pneumoniae. The series can be described thus: Antibacterial activity against Klebsiella pneumoniae ATCC […] assessed as bacterial growth inhibition in presence of CAMHB medium by broth microdilution method. Format: functional.

Broadly, the MIC is the smallest concentration in the dilution series that meets the test's criterion for growth inhibition. Consider `Brc1cc2c(c3ncccc13)OCN(CCc1ccccc1)C2`, for which the MIC in the series on Escherichia coli was found to be 25 µg/mL.
For `Fc1ccc(CN2COc3c(cc(F)c4cccnc34)C2)c(F)c1`, the MIC in the series on Escherichia coli was found to be 25 µg/mL.
Turning to `Clc1ccc(CN2COc3c(cc(Br)c4cccnc34)C2)cc1`, the MIC with Escherichia coli is more than 100 µg/mL.
In the case of `Fc1ccc(CCN2COc3c(cc(Br)c4cccnc34)C2)cc1`, the MIC with Escherichia coli amounted to 25 µg/mL.
Broadly, the IC50 is the midpoint of a concentration-inhibition curve. Consider `Fc1cc2c(c3ncccc13)OCN(CCCc1ccccc1)C2`, for which the values for the IC50 at 48 h in series [1] and in series [2] were 13.6 µg/mL (≈ 42.1 µM) and 26 µg/mL (≈ 80.5 µM), respectively. Moreover, the MIC is 100 µg/mL in the series on Pseudomonas aeruginosa, 6.25 µg/mL in the series with Escherichia coli, 6.25 µg/mL with Acinetobacter baumannii and 50 µg/mL in the series on Klebsiella pneumoniae.
For the molecule `Cc1ccc(CCN2COc3c(cc(Br)c4cccnc34)C2)cc1`, the MIC with Escherichia coli came out at 50 µg/mL.
For the molecule `Fc1ccc(CCN2COc3c(cc(Cl)c4cccnc34)C2)cc1`, the values for the IC50 at 48 h in series [1] and in series [2] were 40.1 µg/mL (≈ 117 µM) and 17.8 µg/mL (≈ 52.1 µM), respectively. Further, the MIC with Pseudomonas aeruginosa was 100 µg/mL; with Escherichia coli, 12.5 µg/mL; in the series with Acinetobacter baumannii, 6.25 µg/mL; with Klebsiella pneumoniae, 50 µg/mL.
For the molecule `Cc1ccc(CCN2COc3c(cc(Cl)c4cccnc34)C2)cc1`, the MIC in the series on Escherichia coli is 50 µg/mL.
The same measure, in the same setting: as for `Brc1cc2c(c3ncccc13)OCN(Cc1ccccc1)C2`, the figure is 25 µg/mL; as for `Clc1cc2c(c3ncccc13)OCN(CCOc1ccccc1)C2`, 25 µg/mL; as for `Fc1cc(CN2COc3c(cc(F)c4cccnc34)C2)cc(F)c1F`, 25 µg/mL.
Regarding `COc1ccc(CCN2COc3c(cc(Br)c4cccnc34)C2)cc1OC`, in the series with Escherichia coli, the MIC is more than 100 µg/mL.
`Fc1cccc(CCN2COc3c(cc(F)c4cccnc34)C2)c1`: the IC50 at 48 h in series [1] was found to be 21.3 µg/mL (≈ 65.2 µM); in series [2], 29.4 µg/mL (≈ 90.2 µM). Besides, the MIC came out at 25 µg/mL in the series on Pseudomonas aeruginosa, 3.12 µg/mL with Escherichia coli, 3.12 µg/mL in the series on Acinetobacter baumannii and 25 µg/mL in the series with Klebsiella pneumoniae.
As to `Clc1cc2c(c3ncccc13)OCN(CCc1ccc(Br)cc1)C2`, the IC50 at 48 h in series [1] is more than 50 µg/mL; in series [2] it was 35.2 µg/mL (≈ 87.3 µM). Moreover, the MIC with Pseudomonas aeruginosa was 100 µg/mL; in the series on Escherichia coli, 12.5 µg/mL; in the series with Acinetobacter baumannii, 6.25 µg/mL; with Klebsiella pneumoniae it was more than 100 µg/mL.
Consider `Brc1cc2c(c3ncccc13)OCN(CCCCc1ccccc1)C2`, for which the MIC in the series on Escherichia coli worked out at 25 µg/mL.
For the molecule `Clc1cc2c(c3ncccc13)OCN(Cc1ccccc1)C2`, the IC50 at 48 h was more than 50 µg/mL in series [1] and 33.8 µg/mL (≈ 109 µM) in series [2]. The MIC in the series on Pseudomonas aeruginosa was 100 µg/mL; in the series on Escherichia coli, 12.5 µg/mL; with Acinetobacter baumannii, 6.25 µg/mL; in the series on Klebsiella pneumoniae it was more than 100 µg/mL.
As for `Brc1cc2c(c3ncccc13)OCN(CCOc1ccccc1)C2`, the MIC with Escherichia coli was 25 µg/mL.
Consider `Fc1cc2c(c3ncccc13)OCN(CCOc1ccccc1)C2`, for which the MIC with Escherichia coli came out at 25 µg/mL.
On to `Fc1cc2c(c3ncccc13)OCN(Cc1cccc(Cl)c1)C2`, for which the IC50 at 48 h in series [1] turned out to be 34 µg/mL (≈ 103 µM); in series [2], 19 µg/mL (≈ 57.7 µM). Also, the MIC worked out at 50 µg/mL in the series on Pseudomonas aeruginosa, 6.25 µg/mL in the series with Escherichia coli, 6.25 µg/mL in the series on Acinetobacter baumannii and 50 µg/mL in the series on Klebsiella pneumoniae.
As to `Fc1ccc(CN2COc3c(cc(Br)c4cccnc34)C2)c(F)c1`, the MIC in the series on Escherichia coli was determined as 25 µg/mL.
For the molecule `Fc1cc2c(c3ncccc13)OCN(Cc1ccccc1)C2`, in the series on Escherichia coli, the MIC was 25 µg/mL.
For `Clc1cc2c(c3ncccc13)OCN(CCc1cccc(Br)c1)C2`, the MIC with Escherichia coli is more than 100 µg/mL.
Regarding `Fc1cc2c(c3ncccc13)OCN(CCOc1ccc(Cl)cc1)C2`, the IC50 at 48 h was more than 50 µg/mL in series [1] and 22.3 µg/mL (≈ 62 µM) in series [2]. Besides, the MIC was found to be 100 µg/mL with Pseudomonas aeruginosa, 12.5 µg/mL in the series on Escherichia coli, 12.5 µg/mL in the series with Acinetobacter baumannii and 50 µg/mL in the series with Klebsiella pneumoniae.
Regarding `Oc1ccc(CCN2COc3c(cc(F)c4cccnc34)C2)cc1`, the MIC in the series with Escherichia coli was more than 100 µg/mL.
